The text below walks through data of the supplement of paper PMC10307832.

Test in all cases: relative viability (nuclei count vs DMSO), 5 days (fraction); higher = more cells survive
Compound in the test “BMX-IN-1 + Tozasertib”: C=CC(=O)Nc1cc(-n2c(=O)ccc3cnc4ccc(-c5ccc(NS(C)(=O)=O)cc5)cc4c32)ccc1C [BMX-IN-1] + Cc1cc(Nc2cc(N3CCN(C)CC3)nc(Sc3ccc(NC(=O)C4CC4)cc3)n2)n[nH]1 [Tozasertib] (partner 0.1 µM)
The procedure, abridged: (§1)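 Relative viability equals treated-well nuclei counts divided by vehicle-well nuclei counts. Counts came from 4× images of lung cancer cell lines grown in 1536-well plates for 5 days after pin-tool dosing on the day after seeding. Dosing used one drug alone or a fixed anchor-drug dose plus five library-drug doses (not always all listed) in √10 steps, and values are medians of duplicate plates.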

Compound in the test “PAC-1 + Vorinostat”: C=CCc1cccc(/C=N/NC(=O)CN2CCN(Cc3ccccc3)CC2)c1O [PAC-1] + O=C(CCCCCCC(=O)Nc1ccccc1)NO [Vorinostat] (partner 1 µM)
The procedure, abridged: as §1

Compound in the test “BMX-IN-1 + Decitabine”: C=CC(=O)Nc1cc(-n2c(=O)ccc3cnc4ccc(-c5ccc(NS(C)(=O)=O)cc5)cc4c32)ccc1C [BMX-IN-1] + Nc1ncn([C@H]2C[C@H](O)[C@@H](CO)O2)c(=O)n1 [Decitabine] (partner 2 µM)
The gist of the method:
as §1

Compound in the test “Ibrutinib + Lapatinib”: C=CC(=O)N1CCC[C@@H](n2nc(-c3ccc(Oc4ccccc4)cc3)c3c(N)ncnc32)C1 [Ibrutinib] + CS(=O)(=O)CCNCc1ccc(-c2ccc3ncnc(Nc4ccc(OCc5cccc(F)c5)c(Cl)c4)c3c2)o1 [Lapatinib] (partner 2 µM)
The procedure, abridged: as §1

For the cell line SK-LU-1, the relative viability in the test with BMX-IN-1 + Tozasertib (first compound 0.02 µM) stood at 0.321; with BMX-IN-1 + Tozasertib (first compound 0.2 µM) it was 0.344; with BMX-IN-1 + Tozasertib (first compound 0.6325 µM), 0.281; with BMX-IN-1 + Tozasertib (first compound 2 µM), 0.254; with PAC-1 + Vorinostat (first compound 0.02 µM) it was 0.742; with PAC-1 + Vorinostat (first compound 0.06325 µM) it was 0.846. In addition, the relative viability with PAC-1 + Vorinostat (first compound 0.2 µM) is 0.757; with PAC-1 + Vorinostat (first compound 2 µM), 0.855; in the test with BMX-IN-1 + Decitabine (first compound 0.02 µM), 0.789; with BMX-IN-1 + Decitabine (first compound 0.2 µM) it was 0.679; in the test with BMX-IN-1 + Decitabine (first compound 0.6325 µM), 0.834; with BMX-IN-1 + Decitabine (first compound 2 µM), 0.679. The relative viability came out at 0.88 with Ibrutinib + Lapatinib (first compound 0.005 µM); 0.76 in the test with Ibrutinib + Lapatinib (first compound 0.01581 µM); 0.838 with Ibrutinib + Lapatinib (first compound 0.05 µM); 0.937 with Ibrutinib + Lapatinib (first compound 0.1581 µM); 0.905 with Ibrutinib + Lapatinib (first compound 0.5 µM).

Turning to SW 1573, the relative viability with BMX-IN-1 + Tozasertib (first compound 0.02 µM) turned out to be 0.115; with BMX-IN-1 + Tozasertib (first compound 0.2 µM), 0.175; with BMX-IN-1 + Tozasertib (first compound 0.6325 µM), 0.185; in the test with BMX-IN-1 + Tozasertib (first compound 2 µM), 0.177; in the test with PAC-1 + Vorinostat (first compound 0.02 µM), 0.693; with PAC-1 + Vorinostat (first compound 0.06325 µM) it was 0.649. Besides, the relative viability with PAC-1 + Vorinostat (first compound 0.2 µM) amounted to 0.571; with PAC-1 + Vorinostat (first compound 2 µM), 0.861; in the test with BMX-IN-1 + Decitabine (first compound 0.02 µM), 0.575; with BMX-IN-1 + Decitabine (first compound 0.2 µM) it was 0.532; in the test with BMX-IN-1 + Decitabine (first compound 0.6325 µM) it was 0.46; in the test with BMX-IN-1 + Decitabine (first compound 2 µM), 0.459. Moreover, the relative viability is 1.01 in the test with Ibrutinib + Lapatinib (first compound 0.005 µM); 1.22 with Ibrutinib + Lapatinib (first compound 0.01581 µM); 1.3 in the test with Ibrutinib + Lapatinib (first compound 0.05 µM); 1 with Ibrutinib + Lapatinib (first compound 0.1581 µM); 1.22 with Ibrutinib + Lapatinib (first compound 0.5 µM).

Turning to UMC-11, the relative viability is 0.194 with BMX-IN-1 + Tozasertib (first compound 0.02 µM); 0.197 in the test with BMX-IN-1 + Tozasertib (first compound 0.2 µM); 0.244 with BMX-IN-1 + Tozasertib (first compound 0.6325 µM); 0.196 with BMX-IN-1 + Tozasertib (first compound 2 µM); 0.36 in the test with PAC-1 + Vorinostat (first compound 0.02 µM); 0.41 with PAC-1 + Vorinostat (first compound 0.06325 µM). For the same cell line, the relative viability came out at 0.349 with PAC-1 + Vorinostat (first compound 0.2 µM); 0.513 with PAC-1 + Vorinostat (first compound 2 µM); 0.604 with BMX-IN-1 + Decitabine (first compound 0.02 µM); 0.526 with BMX-IN-1 + Decitabine (first compound 0.2 µM); 0.66 with BMX-IN-1 + Decitabine (first compound 0.6325 µM); 0.664 with BMX-IN-1 + Decitabine (first compound 2 µM). Also, the relative viability was 0.545 with Ibrutinib + Lapatinib (first compound 0.005 µM); 0.978 in the test with Ibrutinib + Lapatinib (first compound 0.01581 µM); 1.1 with Ibrutinib + Lapatinib (first compound 0.05 µM); 0.87 with Ibrutinib + Lapatinib (first compound 0.1581 µM); 0.907 with Ibrutinib + Lapatinib (first compound 0.5 µM).
